Results published in patent US8993515B2, “Peptidomimetics comprising N-amino cyclic urea residues and uses thereof” (Valorisation-Recherche, Limited Partnership, priority 2012, dated 2015).
Residues, ends and D or L forms follow the SMILES beside them.

How the values were obtained:
[1] = tested on: NF-κB activation in HEK Blue IL-33/IL-1β sensor cells; assay: HEK Blue SEAP reporter gene assay of NF-κB activation; type: cell-based; conditions: peptide 1 μM; human IL-1β 2.5 ng/mL; 24 h
Method: Activation of the NF-κB pathway upon interaction with IL-1β (or IL-33) receptor complex at the membrane was assessed via HEK-Blue SEAP reporter gene assay (InvivoGen®, California, USA). Basically, HEK Blue IL-33/IL-1β sensor cells were cultured in growth medium made of complete Dulbecco's modified Eagle medium (DMEM; 4.5 g/L glucose, 2 mM L-glutamine, […], 10% fetal bovine serum, 50 U/mL penicillin, 50 μg/mL streptomycin; Gibco Invitrogen®, Ontario, Canada) supplemented with selection antibiotics (30 μg/mL Blasticidin®, 200 μg/mL HygroGold® and 100 μg/mL Zeocin®; InvivoGen, California, USA). Upon reaching almost 70% confluency, HEK Blue cells were reincorporated into complete DMEM medium and split (2.5×10^4 cells in 180 μL/well) into 96-well membrane-treated flat bottom culture plates (Plate #3595, Corning Life Sciences, Massachusetts, USA). Cells were pretreated with 10 μL of peptide or peptidomimetic (1 μM) for 15 min., after which 10 μL of human IL-1β (2.5 ng/mL, PeproTech®, Rocky Hill, N.J., USA) was added. Following 24 h of incubation, 40 μL of the cells supernatant was added to a UV-transparent 96-well plate (Plate #3635, Corning Life Sciences®, Massachusetts, USA) already filled with 160 μL of resuspended Quanti-Blue® dye (1×, InvivoGen, California, USA). The plate was covered and incubated for 20 min. The level of SEAP was measured by reading absorbance (or optical density, OD) at 620 nm using a multiplate reader equipped with a monochromator (Perkin Elmer Wallac Envision® 2104; Perkin Elmer®, California, USA). Hexaplicate results were normalized over complete DMEM background signal and analyzed by one-way analysis of variance (ANOVA) factoring for treatments, and data are presented as mean±standard error of the mean (SEM).

[2] = tested on: human TF-1 cells; assay: IL-1β-induced thymocyte (TF-1) proliferation, CyQUANT NF dye; type: cell-based; conditions: peptide 1 μM; human IL-1β 25 ng/mL; 48 h
Method: Immune cell proliferation was assessed by DNA intercalation of CyQUANT NF® fluorescent dye (Invitrogen, Carlsbad, Calif., USA). Essentially, human TF-1 cells (CRL-2003, American Type Culture Collection) were cultured in complete RPMI 1640 (WISENT Inc., Montréal, Quebec, Canada) supplemented with human GM-CSF (2 ng/ml, PeptroTech, Rocky Hill, N.J., USA). Cells (passage 5 and at least 85% viable, as verified by trypan blue dying) were reincorporated into RPMI 1640 medium deprived of phenol red (Gibco Invitrogen®, Carlsbad, Calif., USA) and of growth factors [i.e. fetal bovine serum (FBS) and GM-CSF] for 18 h and split (5×10^3 cells in 200 μL/well) into 96-well non-adherent flat bottom culture plates (Sarstedt®, Nümbrecht, Germany). Following 15 min pre-incubation with peptide or peptidomimetic (1 μM), the cells were treated with human IL-1β (25 ng/mL, PeproTech®, Rocky Hill, N.J., USA) and re-incubated. After 48 h, the cells were centrifuged for 7 min at 300 g, reincorporated into Hank's Buffered Salt Solution (1×HBSS, 50 μL/well, Gibco Invitrogen®, Carlsbad, Calif., USA) and transferred into a 96-well polystyrene black plate (Corning Incorporated, Corning, N.Y., USA). An additional 50 μL solution made of CyQUANT NF® dye (component A, 1×) and CyQUANT NF™ delivery agent (component B, 1×) in 1×HBSS was added to the cells in each well, which were covered with aluminum foil and incubated for 45 min. Fluorescence intensity was measured using a microplate reader (Perkin Elmer Wallac Envision® 2104; Perkin Elmer®, California, USA) with excitation at 485 nm and emission detection at 530 nm (FITC 485 and FITC 531 filters, respectively). Hexaplicate experiments were repeated three times and results were analyzed by one-way analysis of variance (ANOVA) factoring for treatments, and data are presented as mean±standard error of the mean (SEM).

Compound	inhibition of NF-κB activation (OD620) [1] [%]	diminished IL-1β-induced proliferation [2] [%]
CC(C)C[C@@H](NC(=O)[C@@H](CCC(=O)O)NC(=O)[C@@H](C(C)C)N1CCN(NC(=O)[C@@H](Cc2ccc(O)cc2)NC(=O)[C@H](N)CCCNC(=N)N)C1=O)C(=O)N[C@H](C)C(N)=O [[Nai^3]-101.10, D-Arg-D-Tyr-Nai-D-Val-D-Glu-D-Leu-D-Ala-NH2] (HELM PEPTIDE1{[dR].[dY].[CC(C)[C@H](C(=O)[*:2])N1CCN(N[*:1])C1=O].[dE].[dL].[dA].[am]}$$$$V2.0)	65	77
D-Arg-D-Tyr-D-Thr-D-Val-DGlu-D-Leu-D-Ala-NH2 [101.10, reference compound]	77	15
Kineret: a competitive IL-1R antagonist	100	
